Measured values: PubChem BioAssay AID308 (DTP/NCI, 2004)
Toxic doses and inconclusive results are not listed.

Tested on: BDF1 mice, L1210 6-MP/6-TG resistant leukemia ip, survival T/C
Experiment: NCI In Vivo Anticancer Drug Screen. Data for tumor model L1210 Leukemia resistant to 6-MP and 6-Thioguanine; NSC 755, NSC 752 (intraperitoneal) in B6D2F1 (BDF1) mice
Conditions: endpoint: mean survival time, higher = longer survival
Experimental: The antitumor activity of compounds was measured in mice bearing transplantable tumors. Survival or tumor size were measured and the results are expressed as the measurement made in the treated group (T) divided by the measurement made in the vehicle treated control group (C). The tumor model used in this assay is L1210 Leukemia resistant to 6-MP and 6-Thioguanine; NSC 755, NSC 752 (intraperitoneal) in B6D2F1 (BDF1) mice

With C=CCSc1ncnc2c1ncn2C1OC(CO)C(O)C1O (centres undefined) the T/C (dose: 5.0 mg/kg/injection, schedule: Q01DX015 (ip), vehicle: saline) was 112 % of control, the T/C (dose: 10.0 mg/kg/injection, schedule: Q01DX015 (ip), vehicle: saline) was 102 % of control and the T/C (dose: 20.0 mg/kg/injection, schedule: Q01DX015 (ip), vehicle: saline) was 100 % of control. For the same compound, the T/C (dose: 40.0 mg/kg/injection, schedule: Q01DX015 (ip), vehicle: saline) was 100 % of control, the T/C (dose: 50.0 mg/kg/injection, schedule: Q01DX015 (ip), vehicle: saline) was 105 % of control and the T/C (dose: 100.0 mg/kg/injection, schedule: Q01DX015 (ip), vehicle: saline) was 94 % of control. The T/C (dose: 200.0 mg/kg/injection, schedule: Q01DX015 (ip), vehicle: saline) was 90 % of control.
For CNS(=O)(=O)c1ncnc2nc[nH]c12, the T/C (dose: 13.0 mg/kg/injection, schedule: Q01DX Z (ip), vehicle: carboxymethylcellulose (CMC)) was 114 % of control, the T/C (dose: 32.0 mg/kg/injection, schedule: Q01DX Z (ip), vehicle: carboxymethylcellulose (CMC)) was 114 % of control and the T/C (dose: 47.0 mg/kg/injection, schedule: Q01DX Z (ip), vehicle: carboxymethylcellulose (CMC)) was 123 % of control. For the same compound, the T/C (dose: 58.0 mg/kg/injection, schedule: Q01DX Z (ip), vehicle: carboxymethylcellulose (CMC)) was 108 % of control, the T/C (dose: 70.6 mg/kg/injection, schedule: Q01DX Z (ip), vehicle: carboxymethylcellulose (CMC)) was 117 % of control and the T/C (dose: 107.0 mg/kg/injection, schedule: Q01DX Z (ip), vehicle: carboxymethylcellulose (CMC)) was 113 % of control. For the same compound, the T/C (dose: 160.5 mg/kg/injection, schedule: Q01DX Z (ip), vehicle: carboxymethylcellulose (CMC)) was 105 % of control.
With Clc1ccccc1CSc1ncnc2nc[nH]c12 the T/C (dose: 62.5 mg/kg/injection, schedule: Q01DX Z (ip), vehicle: other) was 96 % of control, the T/C (dose: 125.0 mg/kg/injection, schedule: Q01DX Z (ip), vehicle: other) was 92 % of control and the T/C (dose: 250.0 mg/kg/injection, schedule: Q01DX Z (ip), vehicle: other) was 86 % of control.
In the case of O=P1(N(CCCl)CCCl)NCCCO1 (centres undefined), the T/C (dose: 37.5 mg/kg/injection, schedule: Q01DX Z (ip), vehicle: saline) is reported as 153 % of control, the T/C (dose: 75.0 mg/kg/injection, schedule: Q01DX Z (ip), vehicle: saline) is reported as 94 % of control and the T/C (dose: 100.0 mg/kg/injection, schedule: Q01DX Z (ip), vehicle: saline) is reported as 101 % of control.
In the case of C[C@]12C=CC(=O)C=C1CC[C@@H]1[C@@H]2C(=O)C[C@@]2(C)[C@H]1CC[C@]2(O)C(=O)CO, the T/C (dose: 50.0 mg/kg/injection, schedule: Q01DX Z (sc), vehicle: steriod suspending solution) is reported as 105 % of control, the T/C (dose: 100.0 mg/kg/injection, schedule: Q01DX Z (sc), vehicle: steriod suspending solution) is reported as 100 % of control and the T/C (dose: 150.0 mg/kg/injection, schedule: Q01DX Z (sc), vehicle: steriod suspending solution) is reported as 93 % of control. For the same compound, the T/C (dose: 200.0 mg/kg/injection, schedule: Q01DX Z (sc), vehicle: steriod suspending solution) was 96 % of control.
